Measured values reported in ChEMBL document CHEMBL4387765, “Rational design, molecular docking and synthesis of novel homopiperazine linked imidazo[1,2-a]pyrimidine derivatives as potent cytotoxic and antimicrobial agents” (Bioorg Med Chem Lett, 2019).
≈ marks a conversion by molar mass, not a printed value.

Columns and labels:
Escherichia coli = assay: Antibacterial activity against Escherichia coli MTCC 443 after 24 hrs by serial dilution method; format: functional
Pseudomonas sp. = assay: Antibacterial activity against Pseudomonas sp. 2496 after 24 hrs by serial dilution method; format: functional
Candida albicans = assay: Antifungal activity against Candida albicans MTCC 227 after 72 hrs by serial dilution method; format: functional; details: MTCC 227, 72 h
SK-OV-3 = assay: Cytotoxicity against human SKOV3 cells assessed as reduction in cell growth measured after 48 hrs by sulforhodamine B assay; format: functional, cell-based; details: SK-OV-3, 48 h
DU-145 [1] = assay: Cytotoxicity against human DU145 cells assessed as reduction in cell growth measured after 48 hrs by sulforhodamine B assay; format: functional, cell-based; details: DU-145, 48 h
HeLa [2] = assay: Cytotoxicity against human HeLa cells assessed as reduction in cell growth measured after 48 hrs by sulforhodamine B assay; format: functional, cell-based
A549 = assay: Cytotoxicity against human A549 cells assessed as reduction in cell growth measured after 48 hrs by sulforhodamine B assay; format: functional, cell-based; details: A549, 48 h
Bacillus subtilis = assay: Antibacterial activity against Bacillus subtilis MTCC 441 after 24 hrs by serial dilution method; format: functional; details: MTCC 441, 24 h
Priestia megaterium = assay: Antibacterial activity against Bacillus megaterium MTCC 428 after 24 hrs by serial dilution method; format: functional; details: MTCC 428, 24 h
HeLa [3] = assay: Potency index, ratio of etoposide IC50 to test compound IC50 for human HeLa cells; format: functional
DU-145 [4] = assay: Potency index, ratio of etoposide IC50 to test compound IC50 for human DU145 cells; format: functional

Molecule	MIC (Escherichia coli)	MIC (Pseudomonas sp.)	MIC (Candida albicans)	IC50 (SK-OV-3)	IC50 (DU-145 [1])	IC50 (HeLa [2])	IC50 (A549)	MIC (Bacillus subtilis)	MIC (Priestia megaterium)	MIC (Escherichia coli; MTCC 443, 24 h)	MIC (Pseudomonas sp.; Pseudomonas sp., 2496, 24 h)	Ratio IC50 (HeLa [3])	Ratio IC50 (DU-145 [4])
GENTAMICIN	3 µg/mL	6 µg/mL	–	–	–	–	–	–	–	–	–	–	–
C[C@@H]1[C@H](O)[C@@H](C)/C=C/C=C/C=C/C=C/C=C/C=C/C=C/[C@H](O[C@@H]2O[C@H](C)[C@@H](O)[C@H](N)[C@@H]2O)C[C@@H]2O[C@](O)(C[C@@H](O)C[C@@H](O)[C@H](O)CC[C@@H](O)C[C@@H](O)CC(=O)O[C@H]1C)C[C@H](O)[C@H]2C(=O)O [AMPHOTERICIN B]	–	–	8 µg/mL (≈ 8.66 µM)	–	–	–	–	–	–	–	–	–	–
CS(=O)(=O)N1CCCN(c2ccn3cc(-c4ccc(F)cc4)nc3n2)CC1	–	–	38.7 µg/mL (≈ 99.4 µM)	> 300 µM	> 300 µM	> 300 µM	8.41 µM	28.7 µg/mL (≈ 73.7 µM)	26.4 µg/mL (≈ 67.8 µM)	18.4 µg/mL (≈ 47.2 µM)	34.6 µg/mL (≈ 88.8 µM)	–	–
O=C(Cc1ccccc1)N1CCCN(c2ccn3cc(-c4ccc(F)cc4)nc3n2)CC1	–	–	> 100 µg/mL	17.4 µM	> 300 µM	> 300 µM	262 µM	38.6 µg/mL (≈ 89.9 µM)	34.2 µg/mL (≈ 79.6 µM)	8.4 µg/mL (≈ 19.6 µM)	10.2 µg/mL (≈ 23.7 µM)	–	–
O=C(c1ccc(F)cc1)N1CCCN(c2ccn3cc(-c4ccc(F)cc4)nc3n2)CC1	–	–	74.2 µg/mL (≈ 171 µM)	12.7 µM	> 300 µM	6.12 µM	194 µM	34.4 µg/mL (≈ 79.4 µM)	36.7 µg/mL (≈ 84.7 µM)	22.8 µg/mL (≈ 52.6 µM)	38.2 µg/mL (≈ 88.1 µM)	1.31	–
COc1cc([C@@H]2c3cc4c(cc3[C@@H](O[C@@H]3O[C@@H]5CO[C@@H](C)O[C@H]5[C@H](O)[C@H]3O)[C@H]3COC(=O)[C@H]23)OCO4)cc(OC)c1O [ETOPOSIDE]	–	–	–	2.39 µM	9.8 µM	7.43 µM	10.4 µM	–	–	–	–	–	–
Cc1ccc(S(=O)(=O)N2CCCN(c3ccn4cc(-c5ccc(F)cc5)nc4n3)CC2)cc1[N+](=O)[O-]	–	–	81.6 µg/mL (≈ 160 µM)	> 300 µM	16.9 µM	> 300 µM	> 300 µM	34.2 µg/mL (≈ 67 µM)	58.8 µg/mL (≈ 115 µM)	4.2 µg/mL (≈ 8.23 µM)	8.6 µg/mL (≈ 16.8 µM)	–	–
O=S(=O)(c1ccc(F)cc1F)N1CCCN(c2ccn3cc(-c4ccc(F)cc4)nc3n2)CC1	–	–	> 100 µg/mL	10 µM	> 300 µM	> 300 µM	> 300 µM	8.8 µg/mL (≈ 18.1 µM)	10.4 µg/mL (≈ 21.3 µM)	4.6 µg/mL (≈ 9.44 µM)	5.2 µg/mL (≈ 10.7 µM)	–	–
CC(=O)N1CCCN(c2ccn3cc(-c4ccc(F)cc4)nc3n2)CC1	–	–	9.8 µg/mL (≈ 27.7 µM)	105 µM	> 300 µM	220 µM	103 µM	84.2 µg/mL (≈ 238 µM)	> 100 µg/mL	0.92 µg/mL (≈ 2.6 µM)	12.6 µg/mL (≈ 35.7 µM)	–	–
CN(C)C(=O)N1CCCN(c2ccn3cc(-c4ccc(F)cc4)nc3n2)CC1	–	–	4.6 µg/mL (≈ 12 µM)	71.5 µM	10.6 µM	> 300 µM	5.98 µM	18.6 µg/mL (≈ 48.6 µM)	15.8 µg/mL (≈ 41.3 µM)	0.86 µg/mL (≈ 2.25 µM)	1.8 µg/mL (≈ 4.71 µM)	–	–
O=C(C1CC1)N1CCCN(c2ccn3cc(-c4ccc(F)cc4)nc3n2)CC1	–	–	> 100 µg/mL	18.8 µM	> 300 µM	> 300 µM	144 µM	88.6 µg/mL (≈ 234 µM)	92.4 µg/mL (≈ 244 µM)	94.7 µg/mL (≈ 250 µM)	> 100 µg/mL	–	–
CN(C)S(=O)(=O)N1CCCN(c2ccn3cc(-c4ccc(F)cc4)nc3n2)CC1	–	–	8.2 µg/mL (≈ 19.6 µM)	> 300 µM	> 300 µM	> 300 µM	29.9 µM	9.6 µg/mL (≈ 22.9 µM)	10.2 µg/mL (≈ 24.4 µM)	1.4 µg/mL (≈ 3.35 µM)	3.8 µg/mL (≈ 9.08 µM)	–	–
COC(=O)N1CCCN(c2ccn3cc(-c4ccc(F)cc4)nc3n2)CC1	–	–	81.6 µg/mL (≈ 221 µM)	38.7 µM	> 300 µM	262 µM	8.02 µM	35.8 µg/mL (≈ 96.9 µM)	47.2 µg/mL (≈ 128 µM)	7.8 µg/mL (≈ 21.1 µM)	18.6 µg/mL (≈ 50.4 µM)	–	–
N#Cc1ccc(S(=O)(=O)N2CCCN(c3ccn4cc(-c5ccc(F)cc5)nc4n3)CC2)cc1	–	–	68.1 µg/mL (≈ 143 µM)	22.3 µM	> 300 µM	> 300 µM	> 300 µM	24.8 µg/mL (≈ 52 µM)	21.7 µg/mL (≈ 45.5 µM)	58.6 µg/mL (≈ 123 µM)	34.2 µg/mL (≈ 71.8 µM)	–	–
O=C(c1ccc(Cl)cc1)N1CCCN(c2ccn3cc(-c4ccc(F)cc4)nc3n2)CC1	–	–	> 100 µg/mL	> 300 µM	15.2 µM	8.55 µM	110 µM	58.6 µg/mL (≈ 130 µM)	58.6 µg/mL (≈ 130 µM)	88.2 µg/mL (≈ 196 µM)	> 100 µg/mL	–	–
CC1(C)S[C@@H]2[C@H](NC(=O)[C@H](N)c3ccccc3)C(=O)N2[C@H]1C(=O)O [AMPICILLIN]	–	–	–	–	–	–	–	22 µg/mL (≈ 63 µM)	22 µg/mL (≈ 63 µM)	–	–	–	–
O=C(Cc1cccs1)N1CCCN(c2ccn3cc(-c4ccc(F)cc4)nc3n2)CC1	–	–	5.6 µg/mL (≈ 12.9 µM)	18.8 µM	65.5 µM	> 300 µM	> 300 µM	44.2 µg/mL (≈ 101 µM)	38.6 µg/mL (≈ 88.6 µM)	3.1 µg/mL (≈ 7.12 µM)	3.1 µg/mL (≈ 7.12 µM)	–	–
COc1ccc(S(=O)(=O)N2CCCN(c3ccn4cc(-c5ccc(F)cc5)nc4n3)CC2)cc1	–	–	9.4 µg/mL (≈ 19.5 µM)	> 300 µM	> 300 µM	> 300 µM	205 µM	12.8 µg/mL (≈ 26.6 µM)	14.6 µg/mL (≈ 30.3 µM)	> 100 µg/mL	88.2 µg/mL (≈ 183 µM)	–	–
O=C(C1CCCCC1)N1CCCN(c2ccn3cc(-c4ccc(F)cc4)nc3n2)CC1	–	–	> 100 µg/mL	14.5 µM	183 µM	170 µM	104 µM	> 100 µg/mL	> 100 µg/mL	> 100 µg/mL	44.2 µg/mL (≈ 105 µM)	–	–
COc1cccc(S(=O)(=O)N2CCCN(c3ccn4cc(-c5ccc(F)cc5)nc4n3)CC2)c1	–	–	> 100 µg/mL	229 µM	6.24 µM	6.54 µM	4.14 µM	84.8 µg/mL (≈ 176 µM)	84.4 µg/mL (≈ 175 µM)	33.8 µg/mL (≈ 70.2 µM)	22.1 µg/mL (≈ 45.9 µM)	1.13	1.57
O=S(=O)(C1CC1)N1CCCN(c2ccn3cc(-c4ccc(F)cc4)nc3n2)CC1	–	–	14.6 µg/mL (≈ 35.1 µM)	> 300 µM	40.4 µM	33.5 µM	> 300 µM	48.4 µg/mL (≈ 116 µM)	64.6 µg/mL (≈ 155 µM)	34.6 µg/mL (≈ 83.3 µM)	28.2 µg/mL (≈ 67.9 µM)	–	–
